{"source": "patent US6346549B1", "about": "“Treatment of pharmacology of drug misuse and other addictive disorders” (Knoll Pharmaceutical Company, priority 1999, dated 2002)", "key": {"[1]": {"target": "[3H]Dopamine reuptake in rat brain tissue (Rattus norvegicus, UniProt P23977)", "sequence (P23977 whole entry)": "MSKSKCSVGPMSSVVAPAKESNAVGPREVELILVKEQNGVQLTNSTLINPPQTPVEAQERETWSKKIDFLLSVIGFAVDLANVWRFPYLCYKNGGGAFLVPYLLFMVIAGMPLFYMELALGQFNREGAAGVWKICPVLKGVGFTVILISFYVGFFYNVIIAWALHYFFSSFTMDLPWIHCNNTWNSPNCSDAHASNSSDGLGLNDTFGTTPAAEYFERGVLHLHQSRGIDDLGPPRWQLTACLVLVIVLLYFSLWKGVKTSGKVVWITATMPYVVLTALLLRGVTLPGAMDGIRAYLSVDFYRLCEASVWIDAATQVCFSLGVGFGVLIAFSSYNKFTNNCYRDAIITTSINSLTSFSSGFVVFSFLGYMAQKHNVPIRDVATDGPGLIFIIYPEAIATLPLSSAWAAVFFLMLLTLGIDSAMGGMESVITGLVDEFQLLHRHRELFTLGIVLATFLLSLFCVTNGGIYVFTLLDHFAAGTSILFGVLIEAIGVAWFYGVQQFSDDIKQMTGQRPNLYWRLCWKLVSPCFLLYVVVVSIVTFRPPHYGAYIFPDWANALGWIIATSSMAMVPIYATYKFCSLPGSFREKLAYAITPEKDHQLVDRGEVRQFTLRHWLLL", "assay": "biochemical"}, "[2]": {"target": "T1, [3H]Noradenaline reuptake in rat brain tissue (Rattus norvegicus)", "T1 construct": "in rat brain tissue; from tissue; host or cells: rat brain tissue", "T1 sequence (Q63380 1-617)": "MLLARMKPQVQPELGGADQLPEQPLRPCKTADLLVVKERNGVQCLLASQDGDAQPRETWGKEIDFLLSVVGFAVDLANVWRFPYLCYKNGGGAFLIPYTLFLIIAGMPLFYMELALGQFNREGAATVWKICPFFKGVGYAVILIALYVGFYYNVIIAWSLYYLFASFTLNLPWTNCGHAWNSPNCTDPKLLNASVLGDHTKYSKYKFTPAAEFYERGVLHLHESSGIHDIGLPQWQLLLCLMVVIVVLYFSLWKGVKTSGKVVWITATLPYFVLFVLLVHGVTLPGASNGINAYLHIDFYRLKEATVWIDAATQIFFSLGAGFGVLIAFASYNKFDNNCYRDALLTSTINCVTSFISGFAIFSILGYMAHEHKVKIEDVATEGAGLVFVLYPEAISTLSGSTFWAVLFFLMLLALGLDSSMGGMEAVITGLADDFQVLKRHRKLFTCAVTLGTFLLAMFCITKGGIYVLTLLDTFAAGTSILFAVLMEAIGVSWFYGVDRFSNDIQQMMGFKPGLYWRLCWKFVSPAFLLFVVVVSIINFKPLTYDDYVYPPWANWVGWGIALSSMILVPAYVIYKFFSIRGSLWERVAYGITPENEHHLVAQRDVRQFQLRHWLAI", "assay": "in vitro [3H]noradrenaline reuptake inhibition in rat brain tissue", "assay_type": "biochemical", "details": "monoamine reuptake inhibition, means of ≧3 separate determinations"}}, "data": [{"compound": "CC(NC(C)(C)C)C(=O)c1cccc(Cl)c1", "note": "(centres unmarked) [Bupropion]", "values": [{"measurement": "Ki", "setting": "[1]", "value": 409, "unit": "nM"}, {"measurement": "Ki", "setting": "[2]", "value": 2590, "unit": "nM"}]}]}
